Experimental data taken from the supplement of paper PMC10307832.

Legend:
Experiment in all cases: relative viability (nuclei count vs DMSO), 5 days (fraction); higher = more cells survive
Avagacestat + Olaparib = compound: NC(=O)[C@@H](CCC(F)(F)F)N(Cc1ccc(-c2ncon2)cc1F)S(=O)(=O)c1ccc(Cl)cc1 [Avagacestat] + O=C(c1cc(Cc2n[nH]c(=O)c3ccccc23)ccc1F)N1CCN(C(=O)C2CC2)CC1 [Olaparib] (partner 8 µM)
Outline: (§1)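 Relative viability was taken as the ratio of nuclei in treated wells to nuclei in vehicle wells. Lung cancer cell lines in 1536-well plates received compounds by pin tool one day after seeding, either one drug alone or a fixed anchor-drug dose plus five library-drug doses (not always all listed) in √10 steps. Nuclei were counted on 4× images after 5 days of treatment, and values are medians of duplicate plates.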

Avagacestat + Pemetrexed = compound: NC(=O)[C@@H](CCC(F)(F)F)N(Cc1ccc(-c2ncon2)cc1F)S(=O)(=O)c1ccc(Cl)cc1 [Avagacestat] + Nc1nc2[nH]cc(CCc3ccc(C(=O)N[C@@H](CCC(=O)O)C(=O)O)cc3)c2c(=O)[nH]1 [Pemetrexed] (partner 0.2 µM)
Outline: as §1

Avagacestat + Vorinostat = compound: NC(=O)[C@@H](CCC(F)(F)F)N(Cc1ccc(-c2ncon2)cc1F)S(=O)(=O)c1ccc(Cl)cc1 [Avagacestat] + O=C(CCCCCCC(=O)Nc1ccccc1)NO [Vorinostat] (partner 1 µM)
Outline: as §1

Avagacestat + Linsitinib = compound: NC(=O)[C@@H](CCC(F)(F)F)N(Cc1ccc(-c2ncon2)cc1F)S(=O)(=O)c1ccc(Cl)cc1 [Avagacestat] + C[C@]1(O)C[C@@H](c2nc(-c3ccc4ccc(-c5ccccc5)nc4c3)c3c(N)nccn32)C1 [Linsitinib] (partner 1 µM)
Outline: as §1

| Cell Line | relative viability (Avagacestat + Olaparib; first compound 0.08 µM) | relative viability (Avagacestat + Olaparib; first compound 0.253 µM) | relative viability (Avagacestat + Olaparib; first compound 0.8 µM) | relative viability (Avagacestat + Olaparib; first compound 2.53 µM) | relative viability (Avagacestat + Olaparib; first compound 8 µM) | relative viability (Avagacestat + Pemetrexed; first compound 0.08 µM) | relative viability (Avagacestat + Pemetrexed; first compound 0.253 µM) | relative viability (Avagacestat + Pemetrexed; first compound 0.8 µM) | relative viability (Avagacestat + Pemetrexed; first compound 2.53 µM) | relative viability (Avagacestat + Pemetrexed; first compound 8 µM) | relative viability (Avagacestat + Vorinostat; first compound 0.08 µM) | relative viability (Avagacestat + Vorinostat; first compound 0.253 µM) | relative viability (Avagacestat + Vorinostat; first compound 0.8 µM) | relative viability (Avagacestat + Vorinostat; first compound 2.53 µM) | relative viability (Avagacestat + Vorinostat; first compound 8 µM) | relative viability (Avagacestat + Linsitinib; first compound 0.08 µM) | relative viability (Avagacestat + Linsitinib; first compound 0.253 µM) | relative viability (Avagacestat + Linsitinib; first compound 0.8 µM) | relative viability (Avagacestat + Linsitinib; first compound 2.53 µM) | relative viability (Avagacestat + Linsitinib; first compound 8 µM) |
| --- | --- | --- | --- | --- | --- | --- | --- | --- | --- | --- | --- | --- | --- | --- | --- | --- | --- | --- | --- | --- |
| NCI-H1666 | 0.843 | 0.863 | 0.808 | 0.955 | 0.758 | 0.938 | 0.871 | 0.877 | 0.822 | 0.889 | 1.17 | 1.23 | 1.28 | 1.12 | 1.09 | 1.03 | 0.861 | 1.02 | 0.865 | 1.02 |
| NCI-H1734 | 0.731 | 0.747 | 0.614 | 0.574 | 0.633 | 0.437 | 0.398 | 0.401 | 0.426 | 0.434 | 0.876 | 0.901 | 0.829 | 0.761 | 0.824 | 1.2 | 0.924 | 0.946 | 0.819 | 0.782 |
| NCI-H1755 | 0.894 | 0.957 | 0.901 | 0.914 | 0.884 | 0.541 | 0.478 | 0.383 | 0.372 | 0.383 | 0.884 | 0.782 | 0.891 | 0.666 | 0.791 | 1.05 | 1.05 | 1.03 | 0.991 | 0.951 |
| NCI-H1793 | 1.04 | 0.601 | 1.11 | 0.827 | 0.616 | 0.907 | 1.03 | 1.07 | 0.94 | 0.785 | 0.841 | 0.985 | 0.773 | 0.865 | 0.993 | 1.01 | 0.926 | 1.02 | 0.913 | 0.657 |
| NCI-H1915 | 0.264 | 0.28 | 0.257 | 0.249 | 0.227 | 0.521 | 0.573 | 0.537 | 0.5 | 0.52 | 0.56 | 0.633 | 0.522 | 0.477 | 0.479 | 1.11 | 1.18 | 1.08 | 1.08 | 1.09 |
| NCI-H1944 | 0.492 | 0.448 | 0.46 | 0.4 | 0.421 | 0.784 | 0.654 | 0.613 | 0.599 | 0.585 | 0.716 | 0.635 | 0.497 | 0.554 | 0.54 | 1.28 | 1.15 | 1.47 | 1.04 | 1.01 |
| NCI-H1975 | 1.03 | 1.04 | 0.94 | 0.814 | 0.665 | 0.312 | 0.325 | 0.316 | 0.291 | 0.308 | 0.823 | 0.866 | 0.765 | 0.694 | 0.628 | 1.14 | 1.19 | 1.04 | 0.943 | 0.994 |
| NCI-H1993 | 1.28 | 1.1 | 1.17 | 1.17 | 0.836 | 0.826 | 0.542 | 0.686 | 0.684 | 0.504 | 0.797 | 0.771 | 0.74 | 0.7 | 0.631 | 0.754 | 0.746 | 0.765 | 0.773 | 0.749 |
